We go through one molecule from US6919338B2, “Substituted quinazoline derivatives and their use as inhibitors of aurora-2 kinase” (AstraZeneca AB, priority 2000, dated 2005).

Where only a bound is given, the exact number is not on record here.

One test addresses T1, aurora2 kinase (Homo sapiens, UniProt O14965).
T1 construct: made in house; host or cells: Spodoptera frugiperda Sf21 insect cells (baculovirus)
T1 sequence (O14965 1-403): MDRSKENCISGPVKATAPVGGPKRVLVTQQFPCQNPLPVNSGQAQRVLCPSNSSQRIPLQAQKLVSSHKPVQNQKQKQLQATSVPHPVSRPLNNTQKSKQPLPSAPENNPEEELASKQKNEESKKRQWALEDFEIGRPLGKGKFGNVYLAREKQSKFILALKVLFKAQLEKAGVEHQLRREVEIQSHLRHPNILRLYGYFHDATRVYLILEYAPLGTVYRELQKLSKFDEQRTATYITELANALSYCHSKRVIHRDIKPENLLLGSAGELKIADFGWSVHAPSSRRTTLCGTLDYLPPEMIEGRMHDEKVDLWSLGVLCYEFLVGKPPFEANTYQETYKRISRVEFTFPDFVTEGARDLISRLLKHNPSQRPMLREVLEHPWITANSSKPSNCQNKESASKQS
Put plainly: In vitro aurora2 kinase inhibition test. Type of test: biochemical.

For another test, the system named is MCF7 cells. The test is described as follows: In vitro cell cycle analysis assay. Type of test: cell-based, human. The settings on record: 24 hours, 10 μM Compound 52 (text b2735 says 1 μM). How it is done:
(a) In Vitro Cell Cycle Analysis Assay
This assay determines the ability of a test compound to arrest cells in specific phases of the cell cycle. Many different mammalian cell lines could be used in this assay and MCF7 cells are included here as an example. MCF-7 cells were seeded at 3×10^5 cells per T25 flask (Costar) in 5 ml DMEM (no phenol red 10% FCS, 1% L-glutamine 1% penicillin/streptomycin). Flasks were then incubated overnight in a humidified 37° C. incubator with 5% CO2. The following day 1 ml of DMEM (no phenol red 10% FCS, 1% L-glutamine 1% penicillin/streptomycin) carrying the appropriate concentration of test compound solubilised in DMSO was added to the flask. A no compound control treatments was also included (0.5% DMSO). The cells were then incubated for a defined time (usually 24 hours) with compound. […] The samples were then transferred to LPS tubes and DNA content per cell analysed by Fluorescence activated cell sorting (FACS) using a FACScan flow cytometer (Becton Dickinson). Typically 25000 events were counted and recorded using CellQuest v1.1 software (Verity Software). Cell cycle distribution of the population was calculated using Modfit software (Verity Software) and expressed as percentage of cells in G0/G1, S and G2/M phases of the cell cycle. […]

The subject of test [1] is human tumour cell line MCF7. The test is described as follows: In vitro cell proliferation assay. Type of test: cell-based. The settings on record: MCF7, 72 h, MCF-7 cells, 3 days with compound, CyQUANT, read-out: concentration giving 50% inhibition of cell proliferation. From the text: (a) In Vitro Cell Proliferation Assay
This assay determines the ability of a test compound to inhibit the growth of adherent mammalian cell lines, for example the human tumour cell line MCF7. MCF-7 (ATCC HTB-22) or other adherent cells were typically seeded at 1×10^3 cells per well (excluding the peripheral wells) in DMEM (Sigma Aldrich) without phenol red, plus 10% foetal calf serum, 1% L-glutamine and 1% penicillin/streptomycin in 96 well tissue culture treated clear plates (Costar). The following day (day 1), the media was removed from a no treatment control plate and the plate stored at −80° C. The remaining plates were dosed with compound (diluted from 10 mM stock in DMSO using DMEM (without phenol red, 10% FCS, 1% L-glutamine, 1% penicillin/streptomycin). Untreated control wells were included on each plate. After 3 days in the presence/absence of compound (day 4) the media was removed and the plates stored at −80° C. Twenty four hours later the plates were thawed at room temperature and cell density determined using the CyQUANT cell proliferation assay kit (c-7026/c-7027 Molecular Probes Inc.) according to manufacturers directions. Briefly, 200 μl of a cell lysis/dye mixture (10 μl of 20× cell lysis buffer B, 190 μl of sterile water, 0.25 μl of CYQUANT GR dye) was added to each well and the plates incubated at room temperature for 5 minutes in the dark. […]

Take `COc1cc2c(Nc3nc(CC(=O)Nc4ccc(F)cc4)cs3)ncnc2cc1OCCCN1CCOCC1` [Compound 52]: the values for the IC50 (at aurora2 kinase; in test [1]) were 167 nM and 616 nM, respectively. In addition, in the test on MCF7 cells, the “% Cells in G2/M” value was greater than 50%.
